In patent publication US8722676B2, “Bicyclic piperazine compounds” (Genentech, Inc., priority 2011, dated 2014):

Test system: production of CD69 by B lymphocytes in human whole blood activated with goat F(ab')2 anti-human IgM
Assay: CD69 Whole Blood Assay (CD69 Hu Blood FACS)
Format: cell-based
Conditions: anti-IgM stimulated, 20 hour incubation, CD69+ of CD20+ cells
Description: A CD69 Whole Blood Assay can be conducted on Formula I compounds to determine the ability of compounds to inhibit the production of CD69 by B lymphocytes in human whole blood activated by crosslinking surface IgM with goat F(ab′)2 anti-human IgM (Example 907). CD69 is a type II C-type lectin involved in lymphocyte migration and cytokine secretion. CD69 expression represents one of the earliest available indicators of leukocyte activation and its rapid induction occurs through transcriptional activation (Vazquez et al (2009) Jour. of Immunology Published Oct. 19, 2009, doi:10.4049/jimmunol.0900839). Concentration-dependent inhibition of antigen receptor stimulation by selective Btk inhibitors induces cell surface expression of the lymphocyte activation marker CD69 (Honigberg et al (2010) Proc. Natl. Acad. Sci. 107(29):13075-13080). Thus, CD69 inhibition by selective Btk inhibitors may be correlated with therapeutic efficacy of certain B-cell disorders.
Human blood is obtained from healthy volunteers, with the following restrictions: 1 week drug-free, non-smokers. Blood (approximately 20 mls to test 8 compounds) is collected by venipuncture into Vacutainer® (Becton, Dickinson and Co.) tubes with sodium heparin.
Solutions of Formula I compounds at 10 mM in DMSO are diluted 1:10 in 100% DMSO, then are diluted by three-fold serial dilutions in 100% DMSO for a ten point dose-response curve. The compounds are further diluted 1:10 in PBS and then an aliquot of 5.5 μl of each compound is added in duplicate to a 2 ml 96-well plate; 5.5 μl of 10% DMSO in PBS is added as control and no-stimulus wells. Human whole blood—HWB (100 μl) is added to each well. After mixing the plates are incubated at 37° C., 5% CO2, 100% humidity for 30 minutes. Goat F(ab′)2 anti-human IgM (10 μl of a 500 μg/ml solution, 50 μg/ml final) is added to each well (except the no-stimulus wells) with mixing and the plates are incubated for an additional 20 hours. At the end of the 20 hour incubation, samples are incubated with fluorescent labeled antibodies for 30 minutes, at 37° C., 5% CO2, 100% humidity. Include induced control, unstained and single stains for compensation adjustments and initial voltage settings. Samples are then lysed with PharM Lyse™ (BD Biosciences Pharmingen) according to the manufacturer's instructions. Samples are then transferred to a 96 well plate suitable to be run on the BD Biosciences HTS 96 well system on the LSRII machine. Data acquired and Mean Fluorescence Intensity values were obtained using BD Biosciences DIVA Software. Results are initially analyzed by FACS analysis software (Flow Jo).

Work on `O=C1c2cc3n(c2CCN1c1cc(F)cc(-c2nc(Nc4ccc(N5CCN(C6COC6)CC5)cc4)c4nc[nH]c4n2)c1CO)CCCC3` [Compound 120, 2-[5-fluoro-2-(hydroxymethyl)-3-[6-[4-[4-(oxetan-3-yl)piperazin-1-yl]anilino]-9H-purin-2-yl]phenyl]-3,4,6,7,8,9-hexahydropyrido[3,4-b]indolizin-1-one] yielded a CD69 Hu Blood FACS IC70 (Table 2) of 1900 nM.

With `O=C1c2cc3c(n2CCN1c1nccc(-c2cc(Nc4ccc(N5CCN(C6COC6)CC5)cn4)c4nc[nH]c4c2)c1CO)CCCC3` [Compound 118, 2-[3-(hydroxymethyl)-4-[7-[[5-[4-(oxetan-3-yl)piperazin-1-yl]-2-pyridyl]amino]-3H-benzimidazol-5-yl]-2-pyridyl]-3,4,6,7,8,9-hexahydropyrazino[1,2-a]indol-1-one] the CD69 Hu Blood FACS IC70 (Table 2) was 4300 nM.

`O=C1c2cc3c(n2CCN1c1cc(F)cc(-c2cc(Nc4ccc(N5CCN(C6COC6)CC5)cn4)c4nccn4n2)c1CO)CCCC3` [Compound 105, 2-(5-Fluoro-2-(hydroxymethyl)-3-(8-(5-(4-(oxetan-3-yl)piperazin-1-yl)pyridin-2-ylamino)imidazo[1,2-b]pyridazin-6-yl)phenyl)-3,4,6,7,8,9-hexahydro-pyrazino[1,2-a]indol-1(2H)-one] gave a CD69 Hu Blood FACS IC70 (Table 1) of 49 nM.

Compound `CN1CCN(c2ccc(Nc3cc(-c4cc(F)cc(N5CCn6c(cc7c6CCCC7)C5=O)c4CO)cn4ccnc34)nc2)CC1` [Compound 101, 2-(5-Fluoro-2-(hydroxymethyl)-3-(8-(5-(4-methylpiperazin-1-yl)pyridin-2-ylamino)imidazo[1,2-a]pyridin-6-yl)phenyl)-3,4,6,7,8,9-hexahydropyrazino[1,2-a]indol-1(2H)-one] has a CD69 Hu Blood FACS IC70 (Table 1) of 7 nM.
